Measurements taken from patent US6737383B1, “Herbicidal oxadiazolidines” (priority 1999, dated 2004).

Tests used:
giant foxtail = test: Test B pre/postemergence giant foxtail; type: in vivo, Setaria faberii
Procedure, shortened: (§1)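 Test chemicals in a non-phytotoxic solvent mixture with surfactant were sprayed preemergence onto planted seeds and postemergence onto plants 2 to 18 cm tall (1- to 4-leaf stage). After twelve to sixteen days in a greenhouse, injury was visually rated against untreated controls from 0 (no effect) to 10 (complete control).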

surinam grass = test: Test B pre/postemergence surinam grass; type: in vivo, Brachiaria decumbens
Procedure, shortened: as §1

pigweed = test: Test B pre/postemergence pigweed; type: in vivo, Amaranthus retroflexus
Procedure, shortened: as §1

blackgrass = test: Test B pre/postemergence blackgrass; type: in vivo, Alopecurus myosuroides
Procedure, shortened: as §1

wild oat = test: Test B pre/postemergence wild oat; type: in vivo, Avena fatua
Procedure, shortened: as §1

corn = test: Test B pre/postemergence corn; type: in vivo, Zea mays
Procedure, shortened: as §1

smallflower flatsedge = test: Test B flood test smallflower flatsedge; type: in vivo, Cyperus difformis; conditions: for S. Flatsedge plant response rating: Postemergence section (flood test species)
Procedure, shortened: (§2)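 Plants were grown to the 2-leaf stage before treatment with test chemical, then held in a greenhouse for twelve to sixteen days. Injury was visually rated against untreated controls on a 0–10 scale, where 0 is no effect and 10 is complete control.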

cocklebur = test: Test B pre/postemergence cocklebur; type: in vivo, Xanthium strumarium
Procedure, shortened: as §1

velvetleaf = test: Test B pre/postemergence velvetleaf; type: in vivo, Abutilon theophrasti
Procedure, shortened: as §1

rape = test: Test B pre/postemergence rape; type: in vivo, Brassica napus
Procedure, shortened: as §1

soybean = test: Test B pre/postemergence soybean; type: in vivo, Glycine max
Procedure, shortened: as §1

morningglory = test: Test B pre/postemergence morningglory; type: in vivo, Ipomoea hederacea
Procedure, shortened: as §1

sugar beet = test: Test B pre/postemergence sugar beet; type: in vivo, Beta vulgaris
Procedure, shortened: as §1

wheat = test: Test B pre/postemergence wheat; type: in vivo, Triticum aestivum
Procedure, shortened: as §1

rice = test: Test B flood test rice; type: in vivo, Oryza sativa; conditions: for Rice plant response rating: Postemergence section (flood test species)
Procedure, shortened: as §2

[1] = Postemergence, Rate 250 g/ha, scale 0 to 10, 0 is no effect, 10 is complete control
[2] = Postemergence, Rate 500 g/ha, scale of 0 to 10 where 0 is no effect and 10 is complete control
[3] = Preemergence, Rate 62 g/ha, scale 0 to 10 (0 no effect, 10 complete control)
[4] = Preemergence, Rate 125 g/ha, scale of 0 to 10 where 0 is no effect and 10 is complete control
[5] = Preemergence, Rate 250 g/ha, scale 0 to 10, 0 is no effect, 10 is complete control
[6] = Preemergence, Rate 500 g/ha, scale 0 to 10, 0 is no effect, 10 is complete control
[7] = Rate 62 g/ha, Postemergence, scale of 0 to 10 where 0 is no effect and 10 is complete control
[8] = Rate 125 g/ha, Postemergence, scale 0 to 10, 0 is no effect, 10 is complete control
[9] = Preemergence, Rate 250 g/ha, scale of 0 to 10 where 0 is no effect and 10 is complete control
[10] = Rate 500 g/ha, scale of 0 to 10 where 0 is no effect and 10 is complete control
[11] = Rate 125 g/ha, scale 0 to 10, 0 is no effect, 10 is complete control
[12] = flood test species, listed under Postemergence, Rate 250 g/ha, scale 0 to 10, 0 is no effect, 10 is complete control

CC(C)N(C(=O)n1oc(=O)n(CCl)c1=O)c1ccc(Cl)cc1 [Compound 422]
0: Plant response rating, Giant foxtail (giant foxtail; [1]) | Giant foxtail plant response rating (giant foxtail; [2]) | Plant response rating, Giant foxtail (giant foxtail; [3]) | Plant response rating, Giant foxtail (giant foxtail; [4]) | Giant foxtail plant response rating (giant foxtail; [5]) | Giant foxtail plant response rating (giant foxtail; [6]) | Giant foxtail plant response rating (giant foxtail; [7]) | Giant foxtail plant response rating (giant foxtail; [8]) | Plant response rating, B. signalgrass (surinam grass; [1]) | B. signalgrass plant response rating (surinam grass; [2]) | Plant response rating, B. signalgrass (surinam grass; [3]) | Plant response rating, B. signalgrass (surinam grass; [4]) | B. signalgrass plant response rating (surinam grass; [9]) | B. signalgrass plant response rating (surinam grass; Preemergence, Rate 500 g/ha, scale of 0 to 10 where 0 is no effect and 10 is complete control) | B. signalgrass plant response rating (surinam grass; [7]) | B. signalgrass plant response rating (surinam grass; [8]) | Plant response rating, Redroot pigweed (pigweed; [1]) | Redroot pigweed plant response rating (pigweed; [2]) | Plant response rating, Redroot pigweed (pigweed; [3]) | Plant response rating, Redroot pigweed (pigweed; [4]) | Redroot pigweed plant response rating (pigweed; [5]) | Redroot pigweed plant response rating (pigweed; [6]) | Redroot pigweed plant response rating (pigweed; [8]) | Plant response rating, Blackgrass (blackgrass; [1]) | Blackgrass plant response rating (blackgrass; [2]) | Plant response rating, Blackgrass (blackgrass; [3]) | Plant response rating, Blackgrass (blackgrass; [4]) | Blackgrass plant response rating (blackgrass; [9]) | Blackgrass plant response rating (blackgrass; [6]) | Blackgrass plant response rating (blackgrass; [7]) | Blackgrass plant response rating (blackgrass; [8]) | Wild oats plant response rating (wild oat; [2]) | Plant response rating, Wild oats (wild oat; [3]) | Plant response rating, Wild oats (wild oat; [4]) | Wild oats plant response rating (wild oat; [5]) | Wild oats plant response rating (wild oat; [8]) | Plant response rating, Corn (corn; [1]) | Corn plant response rating (corn; [2]) | Plant response rating, Corn (corn; [3]) | Plant response rating, Corn (corn; [4]) | Corn plant response rating (corn; [5]) | Corn plant response rating (corn; [6]) | Corn plant response rating (corn; [7]) | Corn plant response rating (corn; [8]) | S. Flatsedge plant response rating (smallflower flatsedge; [10]) | S. Flatsedge plant response rating (smallflower flatsedge; [11]) | Plant response rating, S. Flatsedge (smallflower flatsedge; [12]) | Plant response rating, Cocklebur (cocklebur; [1]) | Cocklebur plant response rating (cocklebur; [2]) | Plant response rating, Cocklebur (cocklebur; [3]) | Plant response rating, Cocklebur (cocklebur; [4]) | Cocklebur plant response rating (cocklebur; [5]) | Cocklebur plant response rating (cocklebur; [6]) | Cocklebur plant response rating (cocklebur; [7]) | Cocklebur plant response rating (cocklebur; [8]) | Plant response rating, Velvetleaf (velvetleaf; [1]) | Velvetleaf plant response rating (velvetleaf; [2]) | Plant response rating, Velvetleaf (velvetleaf; [3]) | Plant response rating, Velvetleaf (velvetleaf; [4]) | Velvetleaf plant response rating (velvetleaf; [5]) | Velvetleaf plant response rating (velvetleaf; [6]) | Velvetleaf plant response rating (velvetleaf; [8]) | Plant response rating, Rape (rape; [1]) | Rape plant response rating (rape; [2]) | Plant response rating, Rape (rape; [3]) | Plant response rating, Rape (rape; [4]) | Rape plant response rating (rape; [5]) | Rape plant response rating (rape; [6]) | Rape plant response rating (rape; [8]) | Plant response rating, Soybean (soybean; [3]) | Plant response rating, Soybean (soybean; [4]) | Soybean plant response rating (soybean; [5]) | Soybean plant response rating (soybean; [6]) | Plant response rating, Morningglory (morningglory; [1]) | Morningglory plant response rating (morningglory; [2]) | Plant response rating, Morningglory (morningglory; [3]) | Plant response rating, Morningglory (morningglory; [4]) | Morningglory plant response rating (morningglory; [5]) | Morningglory plant response rating (morningglory; [6]) | Morningglory plant response rating (morningglory; [8]) | Plant response rating, Sugarbeets (sugar beet; [1]) | Sugarbeets plant response rating (sugar beet; [2]) | Plant response rating, Sugarbeets (sugar beet; [3]) | Plant response rating, Sugarbeets (sugar beet; [4]) | Sugarbeets plant response rating (sugar beet; [5]) | Sugarbeets plant response rating (sugar beet; [6]) | Sugarbeets plant response rating (sugar beet; [8]) | Wheat plant response rating (wheat; [2]) | Plant response rating, Wheat (wheat; [3]) | Plant response rating, Wheat (wheat; [4]) | Wheat plant response rating (wheat; [5]) | Wheat plant response rating (wheat; [6]) | Wheat plant response rating (wheat; [8]) | Rice plant response rating (rice; [10]) | Rice plant response rating (rice; [11]) | Plant response rating, Rice (rice; [12])
4: Soybean plant response rating (soybean; [2])
3: Wild oats plant response rating (wild oat; [6]) | Plant response rating, Soybean (soybean; [1]) | Soybean plant response rating (soybean; [8])
